The source of these data is US9409952B2, “Peptide-compound cyclization method” (Chugai Seiyaku Kabushiki Kaisha, priority 2011, dated 2016).

Starred links: 1 amine or outer side, 2 acyl side, 3 side chain; linkers in the order of their positions; H or OH if unused. Positions of bridges follow the written chain, without caps; N, C: chain ends. Non-standard residues stand in square brackets, D forms with d. Residues, ends and D or L forms follow the SMILES beside them. ξ: configuration not given here. *: point of attachment. NMeF = CN[C@@H](Cc1ccccc1)C(=O)O; NMeI = CC[C@H](C)[C@H](NC)C(=O)O; NMeβAla = CN(CCC(=O)[*:2])[*:1]; NMeL = CN[C@@H](CC(C)C)C(=O)O; NMeV = CN[C@H](C(=O)O)C(C)C; Pip = O=C(O)[C@@H]1CCCCN1; NMeA = CN[C@@H](C)C(=O)O; Piperidide = C1CCN(*)CC1; dNMeA = CN[C@H](C)C(=O)O; ξF = NC(Cc1ccccc1)C(=O)O; Aze = O=C(O)[C@@H]1CCN1; Sar = CNCC(=O)O; tBu = CC(C)(C)*

One data set can be described thus: Metabolic stability in human hepatic microsome. Type of data set: in vitro ADME. The settings on record: human, microsomes, pH 7.4, CL NADPH(+).
As to `CC[C@H](C)[C@@H]1NC(=O)[C@@H]2CCCN2C(=O)CNC(=O)[C@H](COC(C)(C)C)NC(=O)[C@H](CC(C)C)N(C)C(=O)C(Cc2ccccc2)NC(=O)CN(C)C(=O)C[C@@H](C(=O)N2CCCCC2)NC(=O)[C@H](CC(C)C)N(C)C(=O)[C@H](Cc2ccccc2)NC(=O)[C@H]([C@@H](C)O)NC(=O)[C@H](C)N(C)C1=O` (stereo partly drawn) [DP-517] ([Sar][ξF][NMeL]S(tBu)GPI[NMeA]TF[NMeL]D-Piperidide; lactam N-12), the microsomal CLint at 1 uM was determined as 31 µL/min/mg.

The same data set, now with this note: microsomes, pH 7.4; human hepatic microsome, NADPH(+); read-out: CL NADPH(+).
Consider `CC[C@H](C)[C@@H]1NC(=O)[C@H](C)NC(=O)[C@H](CC(C)C)N(C)C(=O)[C@H](CC(C)C)NC(=O)[C@H](Cc2ccccc2)NC(=O)[C@H](C(C)C)NC(=O)[C@H](C)N(C)C(=O)[C@H](CC(C)C)NC(=O)[C@H](Cc2ccccc2)N(C)C(=O)[C@H]([C@@H](C)O)NC(=O)CNC(=O)[C@H](C)NC(=O)C[C@@H](C(=O)N2CCCCC2)NC1=O` [DP-87] (AGT[NMeF]L[NMeA]VFL[NMeL]AID-Piperidide; lactam N-13), for which the microsomal CLint at 1 uM came to 120 µL/min/mg.

For `CC(C)C[C@H]1C(=O)N(C)[C@@H](Cc2ccccc2)C(=O)N[C@@H](C)C(=O)N2CCC[C@H]2C(=O)N(C)[C@@H](CC(C)C)C(=O)N(C)[C@@H](Cc2ccccc2)C(=O)N(C)[C@@H](C(C)C)C(=O)N[C@H](C(=O)N2CCCCC2)CC(=O)N[C@H](C)C(=O)N[C@@H]([C@@H](C)O)C(=O)N(C)CC(=O)N1C` [DP-141] ([dA]T[Sar][NMeL][NMeF]AP[NMeL][NMeF][NMeV]D-Piperidide; lactam N-11), the microsomal CLint at 1 uM was found to be 77 µL/min/mg.

For the molecule `CC[C@H](C)[C@@H]1NC(=O)[C@H](C)NC(=O)C[C@@H](C(=O)N2CCCCC2)NC(=O)[C@H](Cc2ccccc2)NC(=O)[C@H](C)NC(=O)[C@H]([C@@H](C)O)NC(=O)[C@H](Cc2ccccc2)NC(=O)[C@H](CC(C)C)N(C)C(=O)[C@H](CC(C)C)NC(=O)[C@H](Cc2ccccc2)NC(=O)[C@H](CC(C)C)NC1=O` [DP-320] (AILFL[NMeL]FTAFD-Piperidide; lactam N-11), the microsomal CLint at 1 uM amounted to 36 µL/min/mg.

On to `CC[C@H](C)[C@@H]1NC(=O)[C@H](CC(C)C)N(C)C(=O)[C@H](Cc2ccccc2)NC(=O)[C@H](CC(C)C)N(C)C(=O)[C@H](CC(C)C)NC(=O)[C@H](Cc2ccccc2)NC(=O)[C@H]([C@@H](C)O)NC(=O)[C@H](C)N(C)C(=O)[C@H](CC(C)C)NC(=O)CCN(C)C(=O)C[C@@H](C(=O)N2CCCCC2)NC1=O` [DP-325] ([NMeβAla]L[NMeA]TFL[NMeL]F[NMeL]ID-Piperidide; lactam N-11), for which the microsomal CLint at 1 uM was determined as 99 µL/min/mg.

For `CC(C)C[C@@H]1NC(=O)CN(C)C(=O)[C@H](C)NC(=O)[C@H]([C@@H](C)O)NC(=O)[C@@H](C)N(C)C(=O)C[C@@H](C(=O)N2CCCCC2)NC(=O)[C@H](CC(C)C)N(C)C(=O)[C@H](CC(C)C)NC(=O)[C@H](C(C)C)N(C)C(=O)[C@H](CC(C)C)NC(=O)[C@H](Cc2ccccc2)NC1=O` [DP-328] ([dNMeA]TA[Sar]LFL[NMeV]L[NMeL]D-Piperidide; lactam N-11), the microsomal CLint at 1 uM is 32 µL/min/mg.

Consider `CC[C@H](C)[C@@H]1NC(=O)[C@H](C(C)C)N(C)C(=O)[C@H](Cc2ccccc2)N(C)C(=O)[C@H](Cc2ccccc2)NC(=O)[C@H](CC(C)C)N(C)C(=O)[C@H](C)N(C)C(=O)[C@H]([C@@H](C)O)NC(=O)[C@H](C)N(C)C(=O)C[C@@H](C(=O)N2CCCCC2)NC(=O)[C@H](CC(C)C)N(C)C1=O` [DP-333] ([NMeA]T[NMeA][NMeL]F[NMeF][NMeV]I[NMeL]D-Piperidide; lactam N-10), for which the microsomal CLint at 1 uM was determined as 157 µL/min/mg.

`CC(C)C[C@@H]1NC(=O)[C@H](Cc2ccccc2)NC(=O)[C@H](CC(C)C)N(C)C(=O)[C@H](Cc2ccccc2)NC(=O)[C@@H](C)N(C)C(=O)C[C@@H](C(=O)N2CCCCC2)NC(=O)[C@H](Cc2ccccc2)N(C)C(=O)CNC(=O)[C@H]([C@@H](C)O)NC(=O)[C@H](CC(C)C)NC1=O` [DP-486] ([dNMeA]F[NMeL]FLLTG[NMeF]D-Piperidide; lactam N-10): the microsomal CLint at 1 uM turned out to be 87 µL/min/mg.

As to `CC[C@H](C)[C@@H]1NC(=O)[C@H](C(C)C)N(C)C(=O)[C@H](C)N(C)C(=O)C[C@@H](C(=O)N2CCCCC2)NC(=O)[C@H](CC(C)C)NC(=O)[C@H](Cc2ccccc2)N(C)C(=O)[C@H](CC(C)C)N(C)C(=O)[C@H](CC(C)C)NC(=O)[C@H]([C@@H](C)O)NC(=O)[C@H](Cc2ccccc2)NC1=O` [DP-488] ([NMeA][NMeV]IFTL[NMeL][NMeF]LD-Piperidide; lactam N-10), the microsomal CLint at 1 uM came to 261 µL/min/mg.

For `CC(C)C[C@@H]1NC(=O)[C@H](Cc2ccccc2)N(C)C(=O)[C@H](C)N(C)C(=O)C[C@@H](C(=O)N2CCCCC2)NC(=O)[C@H]([C@@H](C)O)NC(=O)[C@H](CC(C)C)N(C)C(=O)[C@H](Cc2ccccc2)NC(=O)[C@H](CC(C)C)N(C)C(=O)[C@H](CC(C)C)N(C)C1=O` [DP-494] ([NMeA][NMeF]L[NMeL][NMeL]F[NMeL]TD-Piperidide; lactam N-9), the microsomal CLint at 1 uM turned out to be 330 µL/min/mg.

Consider `CC[C@H](C)[C@@H]1NC(=O)[C@H](C)N(C)C(=O)CN(C)C(=O)C[C@@H](C(=O)N2CCCCC2)NC(=O)[C@H](CC(C)C)N(C)C(=O)[C@H](C)N(C)C(=O)[C@H](Cc2ccccc2)N(C)C(=O)[C@H]([C@@H](C)O)NC(=O)[C@H](Cc2ccccc2)N(C)C(=O)[C@H](CC(C)C)N(C)C1=O` [DP-519] ([Sar][NMeA]I[NMeL][NMeF]T[NMeF][NMeA][NMeL]D-Piperidide; lactam N-10), for which the microsomal CLint at 1 uM came out at 157 µL/min/mg.

Consider `CC(C)C[C@@H]1NC(=O)[C@H](CC(C)C)NC(=O)[C@H](C)N(C)C(=O)C[C@@H](C(=O)N2CCCCC2)NC(=O)[C@H](C(C)C)N(C)C(=O)[C@H](CC(C)C)NC(=O)[C@H](Cc2ccccc2)NC(=O)[C@H]([C@@H](C)O)NC(=O)[C@@H]2CCN2C(=O)[C@H](CC(C)C)NC(=O)[C@H](C)NC1=O` [DP-548] ([NMeA]LLAL[Aze]TFL[NMeV]D-Piperidide; lactam N-11), for which the microsomal CLint at 1 uM was 16 µL/min/mg.

As to `CC[C@H](C)[C@H]1C(=O)NCC(=O)N(C)[C@@H](CC(C)C)C(=O)N[C@@H]([C@@H](C)O)C(=O)N2CCC[C@H]2C(=O)N[C@@H](Cc2ccccc2)C(=O)N[C@H](C(=O)N2CCCCC2)CC(=O)N2CC[C@H]2C(=O)N[C@@H](Cc2ccccc2)C(=O)N(C)[C@@H](CC(C)C)C(=O)N[C@@H](CC(C)C)C(=O)N1C` [DP-550] ([Aze]F[NMeL]L[NMeI]G[NMeL]TPFD-Piperidide; lactam N-11), the microsomal CLint at 1 uM stood at 108 µL/min/mg.

Take `CC[C@H](C)[C@H]1C(=O)NCC(=O)N(C)[C@@H](CC(C)C)C(=O)N[C@@H]([C@@H](C)O)C(=O)N2CCC[C@H]2C(=O)N[C@@H](Cc2ccccc2)C(=O)N[C@H](C(=O)N2CCCCC2)CC(=O)N(C)[C@@H](C)C(=O)N[C@@H](Cc2ccccc2)C(=O)N2CC[C@H]2C(=O)N[C@@H](CC(C)C)C(=O)N1C` [DP-552] ([NMeA]F[Aze]L[NMeI]G[NMeL]TPFD-Piperidide; lactam N-11): the microsomal CLint at 1 uM is 157 µL/min/mg.

`CC[C@H](C)[C@H]1C(=O)NCC(=O)N(C)[C@@H](CC(C)C)C(=O)N[C@@H]([C@@H](C)O)C(=O)N2CCC[C@H]2C(=O)N[C@@H](Cc2ccccc2)C(=O)N[C@H](C(=O)N2CCCCC2)CC(=O)N(C)[C@@H](C)C(=O)N[C@@H](Cc2ccccc2)C(=O)N2CCCC[C@H]2C(=O)N[C@@H](CC(C)C)C(=O)N1C` [DP-553] ([NMeA]F[Pip]L[NMeI]G[NMeL]TPFD-Piperidide; lactam N-11): the microsomal CLint at 1 uM was found to be 106 µL/min/mg.

Regarding `CC(C)C[C@@H]1NC(=O)[C@H](CC(C)C)N(C)C(=O)[C@H](Cc2ccccc2)NC(=O)[C@H](C)N(C)C(=O)C[C@@H](C(=O)N2CCCCC2)NC(=O)[C@H](Cc2ccccc2)NC(=O)[C@@H]2CCCN2C(=O)[C@H]([C@@H](C)O)NC(=O)[C@H](CC(C)C)N(C)C(=O)CNC(=O)[C@@H]2CCN2C1=O` [DP-554] ([NMeA]F[NMeL]L[Aze]G[NMeL]TPFD-Piperidide; lactam N-11), the microsomal CLint at 1 uM stood at 80 µL/min/mg.

As to `CC(C)C[C@@H]1NC(=O)[C@H](CC(C)C)N(C)C(=O)[C@H](Cc2ccccc2)NC(=O)[C@H](C)N(C)C(=O)C[C@@H](C(=O)N2CCCCC2)NC(=O)[C@H](Cc2ccccc2)NC(=O)[C@@H]2CCCN2C(=O)[C@H]([C@@H](C)O)NC(=O)[C@H](CC(C)C)N(C)C(=O)CNC(=O)[C@@H]2CCCCN2C1=O` [DP-555] ([NMeA]F[NMeL]L[Pip]G[NMeL]TPFD-Piperidide; lactam N-11), the microsomal CLint at 1 uM amounted to 95 µL/min/mg.

On to `CC[C@H](C)[C@H]1C(=O)NCC(=O)N2CC[C@H]2C(=O)N[C@@H]([C@@H](C)O)C(=O)N2CCC[C@H]2C(=O)N[C@@H](Cc2ccccc2)C(=O)N[C@H](C(=O)N2CCCCC2)CC(=O)N(C)[C@@H](C)C(=O)N[C@@H](Cc2ccccc2)C(=O)N(C)[C@@H](CC(C)C)C(=O)N[C@@H](CC(C)C)C(=O)N1C` [DP-556] ([NMeA]F[NMeL]L[NMeI]G[Aze]TPFD-Piperidide; lactam N-11), for which the microsomal CLint at 1 uM worked out at 65 µL/min/mg.

With `CC[C@H](C)[C@H]1C(=O)NCC(=O)N2CCCC[C@H]2C(=O)N[C@@H]([C@@H](C)O)C(=O)N2CCC[C@H]2C(=O)N[C@@H](Cc2ccccc2)C(=O)N[C@H](C(=O)N2CCCCC2)CC(=O)N(C)[C@@H](C)C(=O)N[C@@H](Cc2ccccc2)C(=O)N(C)[C@@H](CC(C)C)C(=O)N[C@@H](CC(C)C)C(=O)N1C` [DP-557] ([NMeA]F[NMeL]L[NMeI]G[Pip]TPFD-Piperidide; lactam N-11), the microsomal CLint at 1 uM came to 96 µL/min/mg.

For the molecule `CC[C@H](C)[C@H]1C(=O)NCC(=O)N(C)[C@@H](CC(C)C)C(=O)N[C@@H]([C@@H](C)O)C(=O)N2CC[C@H]2C(=O)N[C@@H](Cc2ccccc2)C(=O)N[C@H](C(=O)N2CCCCC2)CC(=O)N(C)[C@@H](C)C(=O)N[C@@H](Cc2ccccc2)C(=O)N(C)[C@@H](CC(C)C)C(=O)N[C@@H](CC(C)C)C(=O)N1C` [DP-558] ([NMeA]F[NMeL]L[NMeI]G[NMeL]T[Aze]FD-Piperidide; lactam N-11), the microsomal CLint at 1 uM was 133 µL/min/mg.

On to `CC[C@H](C)[C@H]1C(=O)NCC(=O)N(C)[C@@H](CC(C)C)C(=O)N[C@@H]([C@@H](C)O)C(=O)N2CCCC[C@H]2C(=O)N[C@@H](Cc2ccccc2)C(=O)N[C@H](C(=O)N2CCCCC2)CC(=O)N(C)[C@@H](C)C(=O)N[C@@H](Cc2ccccc2)C(=O)N(C)[C@@H](CC(C)C)C(=O)N[C@@H](CC(C)C)C(=O)N1C` [DP-559] ([NMeA]F[NMeL]L[NMeI]G[NMeL]T[Pip]FD-Piperidide; lactam N-11), for which the microsomal CLint at 1 uM is 145 µL/min/mg.
